Earlier results, collected in patent publication US7304085B2, “Nitrogen-containing heteroaryl derivatives” (Genelabs Technologies, Inc., priority 2003, dated 2007).

Experiments:
HCV = conditions: treatment of HCV, long term efficacy

| Compound | patients with significant hemolysis (currently recommended doses) | teratogenicity / embryotoxicity (in vivo) | response rate (HCV) |
| --- | --- | --- | --- |
| NC(=O)c1ncn([C@@H]2O[C@H](CO)[C@@H](O)[C@H]2O)n1 [Ribavirin, 1-β-D-ribofuranosyl-1H-1,2,4-triazole-3-carboxamide] | 10-20% | teratogenic and embryotoxic |  |
| interferon |  |  | about 25% |
